Molecules are shown by their SMILES. In brackets after ≈: the same amount, converted by molar mass.

Type in all cases: functional
The subject of test [1] is Mycobacterium tuberculosis. As to the kind of experiment: Antimycobacterial activity against Mycobacterium tuberculosis strain resistant to cycloserine (CS).
Test [2] relates to Mycobacterium tuberculosis. The test is described as follows: Antimycobacterial activity against Mycobacterium tuberculosis strain resistant to ethambutol (EMB).
For test [3], the system named is Mycobacterium tuberculosis. As to the kind of experiment: Antimycobacterial activity against Mycobacterium tuberculosis strain resistant to ethionamide (ETA).
Test [4] relates to Mycobacterium tuberculosis. As to the kind of experiment: Antimycobacterial activity against Mycobacterium tuberculosis strain resistant to isoniazid (INH).
The test system of test [5] is Mycobacterium tuberculosis. The test is described as follows: Antimycobacterial activity against Mycobacterium tuberculosis strain resistant to kanamycin (KM).
For test [6], the system named is Mycobacterium tuberculosis. As to the kind of experiment: Antimycobacterial activity against Mycobacterium tuberculosis strain resistant to para-aminosalicilyc acid (PAS).
The test system of test [7] is Mycobacterium tuberculosis. The test is described as follows: Antimycobacterial activity against Mycobacterium tuberculosis strain resistant to pyrazinamide (PZA).
Test [8] deals with Mycobacterium tuberculosis. As to the kind of experiment: Antimycobacterial activity against Mycobacterium tuberculosis strain resistant to rifampin (RMP).
Test [9] has as its system Mycobacterium tuberculosis. As to the kind of experiment: Antimycobacterial activity against Mycobacterium tuberculosis strain resistant to thiacetazone (TAC).

With `CO[C@H]1/C=C/O[C@@]2(C)Oc3c(C)c(O)c4c(O)c(c(/C=N/N5CCN(C)CC5)c(O)c4c3C2=O)NC(=O)/C(C)=C\C=C\[C@H](C)[C@H](O)[C@@H](C)[C@@H](O)[C@@H](C)[C@H](OC(C)=O)[C@@H]1C` [RIFAMPIN], the MIC in test [1], in test [2], in test [3], in [4], in [5] and in test [6] was 0.125 µg/mL (≈ 0.152 µM) each time. Moreover, the MIC (commonly the smallest concentration in the dilution series that meets the test's criterion for growth inhibition) in test [7] is 0.125 µg/mL (≈ 0.152 µM); in test [8], greater than 8 µg/mL; in test [9], 0.125 µg/mL (≈ 0.152 µM).
Regarding `CC(=O)Nc1ccc(S(=O)(=O)n2cnc3c(S)ncnc32)cc1`, the MIC in test [1] worked out at 6.25 µg/mL (≈ 17.9 µM); in test [2], 6.25 µg/mL (≈ 17.9 µM); in [3] it was 25 µg/mL (≈ 71.6 µM); in test [4] it was 12.5 µg/mL (≈ 35.8 µM); in test [5] it was 12.5 µg/mL (≈ 35.8 µM); in test [6] it was 6.25 µg/mL (≈ 17.9 µM). For the same compound, the results for the MIC in test [7], in [8] and in [9] were 6.25 µg/mL (≈ 17.9 µM), 12.5 µg/mL (≈ 35.8 µM) and 6.25 µg/mL (≈ 17.9 µM), respectively.
As to `CN(C)S(=O)(=O)n1cnc2c(=S)[nH]cnc21`, the MIC turned out to be 3.13 µg/mL (≈ 12.1 µM) in test [1]; 3.13 µg/mL (≈ 12.1 µM) in test [2]; 12.5 µg/mL (≈ 48.2 µM) in [3]; 6.25 µg/mL (≈ 24.1 µM) in test [4]; 6.25 µg/mL (≈ 24.1 µM) in test [5]; 3.13 µg/mL (≈ 12.1 µM) in test [6]. Besides, the MIC in [7] was 3.13 µg/mL (≈ 12.1 µM); in test [8] it was 6.25 µg/mL (≈ 24.1 µM); in test [9], 3.13 µg/mL (≈ 12.1 µM).
Regarding `O=[N+]([O-])c1ccc(Sn2cnc3c(S)ncnc32)cc1`, the MIC in test [2] stood at 0.78 µg/mL (≈ 2.55 µM); in [4] it was 6.25 µg/mL (≈ 20.5 µM); in test [5], 1.56 µg/mL (≈ 5.11 µM); in [8], 0.78 µg/mL (≈ 2.55 µM).
On to `Nc1cccc(S(=O)(=O)n2cnc3c(S)ncnc32)c1`, for which the MIC in test [1] stood at 12.5 µg/mL (≈ 40.7 µM); in test [2] it was 12.5 µg/mL (≈ 40.7 µM); in [3], 50 µg/mL (≈ 163 µM); in [4], 12.5 µg/mL (≈ 40.7 µM); in [5] it was 12.5 µg/mL (≈ 40.7 µM); in [6], 12.5 µg/mL (≈ 40.7 µM). Besides, the MIC in test [7], in test [8] and in [9] was 12.5 µg/mL (≈ 40.7 µM) each time.
`O=S(=O)(c1ccc(Cl)cc1)n1cnc2c(S)ncnc21`: the MIC was found to be 6.25 µg/mL (≈ 19.1 µM) in test [1]; 6.25 µg/mL (≈ 19.1 µM) in test [2]; 25 µg/mL (≈ 76.5 µM) in test [3]; 12.5 µg/mL (≈ 38.3 µM) in test [4]; 12.5 µg/mL (≈ 38.3 µM) in [5]; 6.25 µg/mL (≈ 19.1 µM) in test [6]. Further, the MIC in [7] amounted to 12.5 µg/mL (≈ 38.3 µM); in [8], 12.5 µg/mL (≈ 38.3 µM); in test [9], 6.25 µg/mL (≈ 19.1 µM).
